According to publication PMC5374710, “Discovery of the first dual GSK3β inhibitor/Nrf2 inducer. A new multitarget therapeutic strategy for Alzheimer’s disease” (Scientific Reports, 2017):

System: iNOS
Experiment: iNOS expression in LPS-stimulated glial cultures (western blot)
Format: cell-based, rat
Conditions: 30 μM, LPS 1 μg/mL
Protocol: TNFα is considered one of the most important pro-inflammatory cytokines. […] The production of TNFα induced by LPS was reduced by 33% at 10 μM and by 50% at 30 μM. […] To further confirm the anti-inflammatory potential of compound 5c we measured the expression of thre NOX2 enzyme, since this isoform has been widely described as being specific tomicroglial cells. As depicted in Fig. 6F, LPS (1 μg/mL) stimulation of primary glial cultures during 24 h increased the expression of NOX2 by 65.3% (p < 0.01) compared to basal conditions.
Figure 6 Nitrites (A), TNFα (B), iNOS (C) and NOX activity (E) blockade (D) and NOX2 production (F) by 5c in primary glial cultures stimulated with LPS (1 μg/mL), HO-1 expression induced by this compound after 24 h. […] NOX activity was measured after 4 h co-treatment with LPS and compound 5c. […]
After treatment, mixed glial cells were washed with cold PBS and lysed in 100 μl ice-cold lysis buffer (1% Nonident P-40, 10% glycerol, 137 mM NaCl, 20 mM Tris HCl pH 7.5, 1 μg/ml leupeptin, 1 mM phenylmethylsulfonyl fluoride, 20 mM NaF, 1 mM sodium pyrophosphate, and 1 mM Na3VO4). […] Peroxidase-conjugated secondary antibodies (1:10000) were used to detect proteins by enhanced chemiluminescence detected by Advance Western-blotting Detection Kit (GE Healthcare, Barcelona, Spain). […]

SMILES: COc1cccc(C2C(C#N)=C(N)Oc3n[nH]c(C)c32)c1 (stereo not shown) [Compound 5c, 6-Amino-4-(3-methoxyphenyl)-3-methyl-2,4-dihydropyrano[2,3-c]pyrazole-5-carbonitrile]
- Reduction of iNOS expression: almost completely
